Experimental data reported in ChEMBL document CHEMBL5291721, “A preclinical secondary pharmacology resource illuminates target-adverse drug reaction associations of marketed drugs” (Nat Commun, 2023).

Key:
[1] = target: T1, Amine oxidase [flavin-containing] A (Homo sapiens, UniProt P21397); type: functional
T1 sequence (P21397 whole entry): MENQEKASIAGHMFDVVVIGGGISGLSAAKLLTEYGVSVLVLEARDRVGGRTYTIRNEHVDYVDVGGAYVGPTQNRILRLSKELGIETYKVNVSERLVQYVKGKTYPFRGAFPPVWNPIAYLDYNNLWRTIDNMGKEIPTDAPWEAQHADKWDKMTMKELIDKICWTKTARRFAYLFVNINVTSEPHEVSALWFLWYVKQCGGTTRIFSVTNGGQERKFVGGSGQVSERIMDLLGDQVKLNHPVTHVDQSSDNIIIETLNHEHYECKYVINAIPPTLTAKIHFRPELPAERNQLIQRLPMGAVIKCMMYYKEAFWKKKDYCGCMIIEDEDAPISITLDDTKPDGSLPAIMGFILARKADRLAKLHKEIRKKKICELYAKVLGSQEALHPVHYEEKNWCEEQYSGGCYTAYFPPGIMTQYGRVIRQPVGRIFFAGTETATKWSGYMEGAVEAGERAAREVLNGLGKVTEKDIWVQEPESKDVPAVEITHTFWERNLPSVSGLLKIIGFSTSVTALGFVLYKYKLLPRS

[2] = target: Acetylcholinesterase (Homo sapiens, UniProt P22303); type: functional
[3] = target: cGMP-inhibited 3',5'-cyclic phosphodiesterase 3A (Homo sapiens, UniProt Q14432); type: functional
[4] = target: Voltage-gated inwardly rectifying potassium channel KCNH2 (Homo sapiens, UniProt Q12809); type: functional
[5] = target: T2, Prostaglandin G/H synthase 1 (Homo sapiens, UniProt P23219); type: functional
[6] = target: T3, Thromboxane A2 receptor (Homo sapiens, UniProt P21731); type: functional, cell-based
T3 sequence (P21731 whole entry): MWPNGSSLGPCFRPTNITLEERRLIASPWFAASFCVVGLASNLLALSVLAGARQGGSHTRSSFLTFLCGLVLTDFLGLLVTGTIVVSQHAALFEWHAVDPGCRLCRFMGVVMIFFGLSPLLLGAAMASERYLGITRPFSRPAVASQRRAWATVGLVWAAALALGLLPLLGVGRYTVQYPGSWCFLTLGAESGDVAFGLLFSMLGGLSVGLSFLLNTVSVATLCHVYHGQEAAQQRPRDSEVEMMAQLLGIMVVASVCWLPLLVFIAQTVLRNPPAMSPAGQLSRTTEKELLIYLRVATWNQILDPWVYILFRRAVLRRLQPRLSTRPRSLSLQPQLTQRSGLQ

[7] = target: T2, Prostaglandin G/H synthase 1; type: functional; remark: listed apart in the source
[8] = target: 3',5'-cyclic-AMP phosphodiesterase 4A (Homo sapiens, UniProt P27815); type: functional
[9] = target: Prothrombin (Homo sapiens, UniProt P00734); type: functional
[10] = target: T4, Alpha-2A adrenergic receptor (Homo sapiens, UniProt P08913)
T4 sequence (P08913 whole entry): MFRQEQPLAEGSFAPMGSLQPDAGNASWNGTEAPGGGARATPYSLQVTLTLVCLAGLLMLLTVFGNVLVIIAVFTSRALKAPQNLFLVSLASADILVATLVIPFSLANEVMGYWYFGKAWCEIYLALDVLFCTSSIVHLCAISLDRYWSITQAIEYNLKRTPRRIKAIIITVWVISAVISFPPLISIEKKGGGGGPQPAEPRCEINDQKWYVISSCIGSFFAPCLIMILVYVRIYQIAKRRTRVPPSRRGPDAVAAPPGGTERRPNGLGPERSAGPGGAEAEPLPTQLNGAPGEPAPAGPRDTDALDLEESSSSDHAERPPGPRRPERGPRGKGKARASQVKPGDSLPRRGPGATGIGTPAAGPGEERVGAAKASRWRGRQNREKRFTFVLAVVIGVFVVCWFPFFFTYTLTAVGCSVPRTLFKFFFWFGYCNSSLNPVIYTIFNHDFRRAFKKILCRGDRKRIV

[11] = target: T5, Alpha-1A adrenergic receptor (Homo sapiens, UniProt P35348); type: functional, cell-based
T5 sequence (P35348 whole entry): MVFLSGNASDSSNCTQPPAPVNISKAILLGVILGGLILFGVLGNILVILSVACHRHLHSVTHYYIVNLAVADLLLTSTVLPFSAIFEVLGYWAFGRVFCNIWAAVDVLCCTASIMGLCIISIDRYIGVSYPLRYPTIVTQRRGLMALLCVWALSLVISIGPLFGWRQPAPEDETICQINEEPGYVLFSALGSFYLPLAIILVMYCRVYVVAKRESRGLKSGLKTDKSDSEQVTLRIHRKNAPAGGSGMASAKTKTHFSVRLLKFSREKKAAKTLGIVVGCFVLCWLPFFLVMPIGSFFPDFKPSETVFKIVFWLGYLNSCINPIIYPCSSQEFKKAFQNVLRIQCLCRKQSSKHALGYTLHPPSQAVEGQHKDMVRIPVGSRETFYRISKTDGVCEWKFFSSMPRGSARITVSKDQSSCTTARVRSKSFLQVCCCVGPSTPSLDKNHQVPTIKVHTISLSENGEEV

[12] = target: Sodium-dependent noradrenaline transporter (Homo sapiens, UniProt P23975)
[13] = target: D(1A) dopamine receptor (Homo sapiens, UniProt P21728)
[14] = target: D(3) dopamine receptor (Homo sapiens, UniProt P35462)
[15] = target: 5-hydroxytryptamine receptor 2B (Homo sapiens, UniProt P41595); type: functional, cell-based
[16] = target: T6, 5-hydroxytryptamine receptor 1A (Homo sapiens, UniProt P08908)
T6 sequence (P08908 whole entry): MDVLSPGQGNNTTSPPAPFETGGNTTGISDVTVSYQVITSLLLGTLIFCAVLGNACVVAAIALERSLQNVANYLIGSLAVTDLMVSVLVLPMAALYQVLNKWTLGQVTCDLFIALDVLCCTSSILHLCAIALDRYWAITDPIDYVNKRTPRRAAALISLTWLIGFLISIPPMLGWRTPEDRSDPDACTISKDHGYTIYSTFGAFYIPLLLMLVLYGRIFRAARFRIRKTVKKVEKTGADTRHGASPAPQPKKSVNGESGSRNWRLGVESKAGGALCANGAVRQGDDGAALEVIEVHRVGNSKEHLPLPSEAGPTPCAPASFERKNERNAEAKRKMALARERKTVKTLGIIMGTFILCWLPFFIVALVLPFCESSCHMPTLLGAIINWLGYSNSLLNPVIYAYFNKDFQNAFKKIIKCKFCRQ
Note: assay procedure not described here.

Chain of Sodium-dependent noradrenaline transporter (P23975 whole entry): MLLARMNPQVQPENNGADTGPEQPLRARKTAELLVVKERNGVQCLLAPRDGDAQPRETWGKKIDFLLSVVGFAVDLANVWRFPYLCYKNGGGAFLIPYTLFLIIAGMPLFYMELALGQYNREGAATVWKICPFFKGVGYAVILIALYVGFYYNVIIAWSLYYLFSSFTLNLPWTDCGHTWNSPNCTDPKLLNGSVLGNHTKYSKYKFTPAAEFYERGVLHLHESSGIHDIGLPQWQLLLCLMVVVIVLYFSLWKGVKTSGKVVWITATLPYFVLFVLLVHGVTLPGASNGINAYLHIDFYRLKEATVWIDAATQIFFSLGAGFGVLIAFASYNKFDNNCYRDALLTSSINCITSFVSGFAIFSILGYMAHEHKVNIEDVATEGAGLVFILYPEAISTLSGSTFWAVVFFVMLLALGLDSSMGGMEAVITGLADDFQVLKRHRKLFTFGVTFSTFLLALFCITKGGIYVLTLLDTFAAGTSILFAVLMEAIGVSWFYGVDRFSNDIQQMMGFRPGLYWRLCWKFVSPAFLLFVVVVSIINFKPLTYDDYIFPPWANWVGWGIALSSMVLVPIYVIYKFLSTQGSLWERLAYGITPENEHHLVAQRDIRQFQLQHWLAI
Chain of Acetylcholinesterase (P22303 whole entry): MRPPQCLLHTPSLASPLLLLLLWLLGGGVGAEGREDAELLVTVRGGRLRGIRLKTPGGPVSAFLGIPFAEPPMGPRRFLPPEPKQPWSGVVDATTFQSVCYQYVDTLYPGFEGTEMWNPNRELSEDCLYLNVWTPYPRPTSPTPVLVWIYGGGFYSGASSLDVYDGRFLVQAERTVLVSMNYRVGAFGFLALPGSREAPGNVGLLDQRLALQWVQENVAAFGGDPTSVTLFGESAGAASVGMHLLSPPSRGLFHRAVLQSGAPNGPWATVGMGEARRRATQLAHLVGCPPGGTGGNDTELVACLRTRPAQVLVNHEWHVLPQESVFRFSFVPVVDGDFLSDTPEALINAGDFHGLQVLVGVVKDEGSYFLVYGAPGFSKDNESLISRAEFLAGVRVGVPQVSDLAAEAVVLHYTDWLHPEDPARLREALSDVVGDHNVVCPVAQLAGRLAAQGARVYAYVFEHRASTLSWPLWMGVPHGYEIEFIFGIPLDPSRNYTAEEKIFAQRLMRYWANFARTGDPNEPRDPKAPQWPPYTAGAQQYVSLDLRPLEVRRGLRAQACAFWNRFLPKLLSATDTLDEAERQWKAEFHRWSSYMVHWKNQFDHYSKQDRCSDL
Chain of 3',5'-cyclic-AMP phosphodiesterase 4A (P27815 whole entry): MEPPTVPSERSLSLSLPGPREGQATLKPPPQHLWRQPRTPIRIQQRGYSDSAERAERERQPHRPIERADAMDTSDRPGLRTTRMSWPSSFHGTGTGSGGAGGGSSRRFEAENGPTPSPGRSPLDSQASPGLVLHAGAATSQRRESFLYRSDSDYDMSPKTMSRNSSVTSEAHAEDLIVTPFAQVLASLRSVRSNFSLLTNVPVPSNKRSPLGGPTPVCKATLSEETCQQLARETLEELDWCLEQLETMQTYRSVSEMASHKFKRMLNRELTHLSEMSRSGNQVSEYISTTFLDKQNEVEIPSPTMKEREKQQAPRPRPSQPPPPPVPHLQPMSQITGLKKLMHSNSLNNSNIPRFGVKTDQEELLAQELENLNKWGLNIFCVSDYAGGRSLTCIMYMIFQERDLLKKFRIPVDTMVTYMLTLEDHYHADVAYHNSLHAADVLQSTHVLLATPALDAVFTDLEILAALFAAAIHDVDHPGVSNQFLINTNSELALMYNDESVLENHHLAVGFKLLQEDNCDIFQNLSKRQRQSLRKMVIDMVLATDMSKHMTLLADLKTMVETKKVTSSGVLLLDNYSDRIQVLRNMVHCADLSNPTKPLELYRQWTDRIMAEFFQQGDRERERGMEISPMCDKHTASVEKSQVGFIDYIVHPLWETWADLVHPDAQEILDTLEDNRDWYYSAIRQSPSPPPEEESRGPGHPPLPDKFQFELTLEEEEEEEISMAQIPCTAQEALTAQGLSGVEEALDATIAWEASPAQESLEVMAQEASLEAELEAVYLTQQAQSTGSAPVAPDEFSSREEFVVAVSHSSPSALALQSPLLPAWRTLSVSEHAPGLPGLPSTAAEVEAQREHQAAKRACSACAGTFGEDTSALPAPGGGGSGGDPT
Chain of D(3) dopamine receptor (P35462 whole entry): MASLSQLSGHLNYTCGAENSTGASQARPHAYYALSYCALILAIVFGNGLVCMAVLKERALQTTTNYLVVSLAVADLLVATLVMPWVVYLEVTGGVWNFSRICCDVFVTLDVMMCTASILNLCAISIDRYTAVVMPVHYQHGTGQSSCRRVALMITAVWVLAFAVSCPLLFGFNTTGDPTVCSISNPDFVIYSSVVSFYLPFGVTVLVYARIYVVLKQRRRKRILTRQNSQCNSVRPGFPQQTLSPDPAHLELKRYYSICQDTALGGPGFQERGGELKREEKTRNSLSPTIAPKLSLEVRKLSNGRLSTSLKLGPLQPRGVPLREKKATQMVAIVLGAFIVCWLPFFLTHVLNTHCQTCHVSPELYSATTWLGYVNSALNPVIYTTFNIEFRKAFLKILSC
T2 sequence (P23219 whole entry): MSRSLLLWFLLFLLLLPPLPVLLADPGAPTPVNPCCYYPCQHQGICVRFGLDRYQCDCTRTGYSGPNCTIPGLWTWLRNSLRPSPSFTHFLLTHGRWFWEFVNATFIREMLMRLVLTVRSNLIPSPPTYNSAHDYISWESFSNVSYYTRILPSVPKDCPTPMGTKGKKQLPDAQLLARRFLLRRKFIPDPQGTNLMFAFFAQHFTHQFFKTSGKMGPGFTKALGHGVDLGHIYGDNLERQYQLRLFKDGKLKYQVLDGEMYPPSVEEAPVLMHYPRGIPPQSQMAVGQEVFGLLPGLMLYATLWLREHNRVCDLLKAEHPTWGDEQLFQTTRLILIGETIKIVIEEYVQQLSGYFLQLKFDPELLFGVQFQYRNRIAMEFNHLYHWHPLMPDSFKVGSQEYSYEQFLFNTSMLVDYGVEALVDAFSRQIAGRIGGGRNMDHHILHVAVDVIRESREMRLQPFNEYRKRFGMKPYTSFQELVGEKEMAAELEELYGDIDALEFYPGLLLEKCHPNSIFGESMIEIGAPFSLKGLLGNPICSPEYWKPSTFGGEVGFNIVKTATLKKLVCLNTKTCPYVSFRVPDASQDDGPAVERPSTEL
Chain of cGMP-inhibited 3',5'-cyclic phosphodiesterase 3A (Q14432 whole entry): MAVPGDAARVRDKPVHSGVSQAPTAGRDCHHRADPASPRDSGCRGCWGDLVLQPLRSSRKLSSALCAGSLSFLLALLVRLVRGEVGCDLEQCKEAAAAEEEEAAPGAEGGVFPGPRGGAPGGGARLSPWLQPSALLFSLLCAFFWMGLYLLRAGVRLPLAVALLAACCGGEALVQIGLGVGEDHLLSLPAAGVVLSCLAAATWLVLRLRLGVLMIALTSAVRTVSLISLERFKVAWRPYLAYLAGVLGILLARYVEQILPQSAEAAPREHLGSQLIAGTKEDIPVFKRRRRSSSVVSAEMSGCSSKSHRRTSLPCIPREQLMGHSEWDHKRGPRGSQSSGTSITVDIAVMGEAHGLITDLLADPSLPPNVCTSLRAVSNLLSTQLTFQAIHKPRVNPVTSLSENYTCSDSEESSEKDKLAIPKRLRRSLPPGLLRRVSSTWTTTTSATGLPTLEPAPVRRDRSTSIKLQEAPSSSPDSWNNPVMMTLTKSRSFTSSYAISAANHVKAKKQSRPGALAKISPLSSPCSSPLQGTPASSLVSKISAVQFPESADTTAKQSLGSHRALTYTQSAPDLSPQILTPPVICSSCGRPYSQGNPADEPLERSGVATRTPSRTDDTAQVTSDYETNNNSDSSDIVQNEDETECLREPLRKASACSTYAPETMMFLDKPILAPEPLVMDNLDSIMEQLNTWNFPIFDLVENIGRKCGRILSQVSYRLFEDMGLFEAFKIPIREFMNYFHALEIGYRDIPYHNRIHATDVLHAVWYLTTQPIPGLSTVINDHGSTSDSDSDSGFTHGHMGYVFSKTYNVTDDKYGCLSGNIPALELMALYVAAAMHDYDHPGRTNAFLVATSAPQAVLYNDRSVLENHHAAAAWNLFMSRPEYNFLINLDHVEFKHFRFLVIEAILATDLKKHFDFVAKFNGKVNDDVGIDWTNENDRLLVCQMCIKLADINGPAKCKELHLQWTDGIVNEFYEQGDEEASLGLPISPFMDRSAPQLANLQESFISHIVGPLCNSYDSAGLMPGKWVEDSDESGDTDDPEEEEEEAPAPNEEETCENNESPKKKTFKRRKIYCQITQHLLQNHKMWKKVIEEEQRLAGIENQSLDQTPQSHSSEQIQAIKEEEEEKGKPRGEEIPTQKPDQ
Chain of 5-hydroxytryptamine receptor 2B (P41595 whole entry): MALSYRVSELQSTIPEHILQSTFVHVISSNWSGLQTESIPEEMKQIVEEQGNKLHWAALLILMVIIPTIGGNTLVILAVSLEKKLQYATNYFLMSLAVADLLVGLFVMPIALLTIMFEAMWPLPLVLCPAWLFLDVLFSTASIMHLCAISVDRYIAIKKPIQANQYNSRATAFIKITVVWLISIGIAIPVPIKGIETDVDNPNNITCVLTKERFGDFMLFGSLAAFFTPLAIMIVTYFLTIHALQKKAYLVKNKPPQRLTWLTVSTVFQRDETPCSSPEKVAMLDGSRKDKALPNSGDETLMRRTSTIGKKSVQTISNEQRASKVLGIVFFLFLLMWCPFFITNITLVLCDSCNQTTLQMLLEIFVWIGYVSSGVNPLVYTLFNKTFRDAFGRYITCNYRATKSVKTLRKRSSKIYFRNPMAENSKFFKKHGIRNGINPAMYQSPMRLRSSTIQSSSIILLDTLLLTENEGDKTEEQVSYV

SMILES | AC50 [1] | AC50 [2] | AC50 [3] | AC50 [4] | AC50 [5] | AC50 [6] | AC50 [7] | AC50 [8] | AC50 [9] | AC50 [10] | AC50 [11] | AC50 [12] | AC50 [13] | AC50 [14] | AC50 [15] | AC50 [16]
Cc1ccc(C)c(OCCCC(C)(C)C(=O)O)c1 [GEMFIBROZIL] | > 30 µM | > 30 µM | > 30 µM | > 30 µM | > 30 µM | > 30 µM | > 30 µM | > 30 µM | > 30 µM | > 30 µM | > 30 µM | > 30 µM | > 30 µM | > 30 µM | > 30 µM | > 30 µM
COc1ccccc1OC1(C)OC(=O)c2ccccc2O1 (stereo unspecified) [GUAIMESAL] | > 30 µM | > 30 µM | > 30 µM | > 30 µM | > 30 µM | > 30 µM | > 30 µM | > 30 µM | > 30 µM | > 30 µM | > 30 µM | > 30 µM | > 30 µM | > 30 µM | > 30 µM | > 30 µM
CCCCC(CC)CN1CN(CC(CC)CCCC)CC(C)(N)C1 (stereo unspecified) [HEXETIDINE] | > 30 µM | > 30 µM | > 30 µM | 0.75 µM | > 30 µM | > 30 µM | > 30 µM | > 30 µM | > 30 µM | 14.4 µM | > 30 µM | 7.93 µM | > 30 µM | 4.84 µM | > 30 µM | 3.44 µM
Cc1cc(=O)oc2cc(O)ccc12 [HYMECROMONE] | > 30 µM | > 30 µM | > 30 µM | > 30 µM | > 30 µM | > 30 µM | > 30 µM | > 30 µM | > 3 µM | > 30 µM | > 30 µM | > 30 µM | > 30 µM | > 30 µM | > 30 µM | > 30 µM
COc1cc(C(C)=O)ccc1OCCCN1CCC(c2noc3cc(F)ccc23)CC1 [ILOPERIDONE] | > 30 µM | 15.9 µM | > 30 µM | 0.15 µM | > 30 µM | > 10 µM | > 30 µM | > 30 µM | > 30 µM | 0.06 µM | > 10 µM | 1.19 µM | 0.01 µM | 0.0099 µM | > 30 µM | 0.11 µM
COc1c2occc2c(OC)c2c(=O)cc(C)oc12 [KHELLIN] | > 30 µM | > 30 µM | > 30 µM | > 30 µM | > 30 µM | > 30 µM | > 30 µM | 2.85 µM | > 30 µM | > 30 µM | > 30 µM | > 30 µM | > 30 µM | > 30 µM | > 30 µM | > 30 µM
